Results from ChEMBL document CHEMBL1201862, “PubChem BioAssay data set” (2004).
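Five compound concentrations were applied to cells in 96-well plates for 48 hours; endpoints were derived by simple linear interpolation of the resulting dose-response curve. GI50 = concentration required for 50% inhibition of growth.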 Activity calls are given as the source filed them. Cut-off read from the data, not from the text of the source: active = GI50 up to about 1.1 µM and inactive = higher.

Key:
Experiment in all cases: inhibition of tumour cell growth, NCI panel, 48 h
A498 = test system: A498
HOP-62 = test system: HOP-62
CAKI-1 = test system: CAKI-1
MOLT-4 = test system: MOLT-4
TK-10 = test system: TK-10
NCI-H226 = test system: NCI-H226
SNB-75 = test system: SNB-75
M14 = test system: M14
HCT-15 = test system: HCT-15
SNB-19 = test system: SNB-19
K562 = test system: K562
RPMI-8226 = test system: RPMI-8226
SK-MEL-2 = test system: SK-MEL-2
SF-268 = test system: SF-268
SF-295 = test system: SF-295
SR = test system: SR
HOP-92 = test system: HOP-92

Row | Compound | GI50 (A498) | GI50 (HOP-62) | GI50 (CAKI-1) | GI50 (MOLT-4) | GI50 (TK-10) | GI50 (NCI-H226) | GI50 (SNB-75) | GI50 (M14) | GI50 (HCT-15) [µM] | GI50 (SNB-19) | GI50 (K562) | GI50 (RPMI-8226) | GI50 (SK-MEL-2) | GI50 (SF-268) | GI50 (SF-295) | GI50 (SR) | GI50 (HOP-92)
1 | O=c1cc(O)cc2n1CCC2 | > 100 µM (inactive) | > 100 µM (inactive) | > 100 µM (inactive) | > 100 µM (inactive) | > 100 µM (inactive) | > 100 µM (inactive) | > 100 µM (inactive) | > 100 µM (inactive) | > 100 | > 100 µM (inactive) | > 100 µM (inactive) | > 100 µM (inactive) | > 100 µM (inactive) | > 100 µM (inactive) | > 100 µM (inactive) | – | –
2 | Cc1ccnc(NS(=O)(=O)c2ccc(NC3=CC(=O)C(=O)c4ccccc43)cc2)n1 | > 100 µM (inactive) | > 100 µM (inactive) | > 100 µM (inactive) | > 100 µM (inactive) | > 100 µM (inactive) | > 100 µM (inactive) | > 100 µM (inactive) | > 100 µM (inactive) | > 100 | > 100 µM (inactive) | > 100 µM (inactive) | – | > 100 µM (inactive) | > 100 µM (inactive) | > 100 µM (inactive) | > 100 µM (inactive) | –
3 | CC(C)(C)C1CCC(=O)C(C(O)CC2CC(=O)N(c3ccccc3)C(=O)C2)C1 (stereo not given) | > 100 µM (inactive) | > 100 µM (inactive) | > 100 µM (inactive) | 54.5 µM (inactive) | > 100 µM (inactive) | > 100 µM (inactive) | > 100 µM (inactive) | > 100 µM (inactive) | > 100 | > 100 µM (inactive) | > 100 µM (inactive) | 73.1 µM (inactive) | – | 81.5 µM (inactive) | > 100 µM (inactive) | 81.3 µM (inactive) | > 100 µM (inactive)
4 | FC(F)(F)c1ccc(/C=N/C23CC4CC(CC(C4)C2)C3)cc1 | > 100 µM (inactive) | > 100 µM (inactive) | > 100 µM (inactive) | > 100 µM (inactive) | > 100 µM (inactive) | > 100 µM (inactive) | > 100 µM (inactive) | > 100 µM (inactive) | > 100 | > 100 µM (inactive) | > 100 µM (inactive) | > 100 µM (inactive) | > 100 µM (inactive) | > 100 µM (inactive) | > 100 µM (inactive) | > 100 µM (inactive) | > 100 µM (inactive)
5 | CCOC(=O)C(=O)Nc1cccc(Cl)c1C | – | > 100 µM (inactive) | > 100 µM (inactive) | > 100 µM (inactive) | > 100 µM (inactive) | > 100 µM (inactive) | – | > 100 µM (inactive) | > 100 | > 100 µM (inactive) | > 100 µM (inactive) | > 100 µM (inactive) | > 100 µM (inactive) | > 100 µM (inactive) | > 100 µM (inactive) | – | > 100 µM (inactive)
6 | CCCCNC(=O)NNC(=O)c1cc(/C=C/c2cccc([N+](=O)[O-])c2)ncn1 | > 100 µM (inactive) | > 100 µM (inactive) | > 100 µM (inactive) | > 100 µM (inactive) | > 100 µM (inactive) | > 100 µM (inactive) | > 100 µM (inactive) | > 100 µM (inactive) | 87.3 | > 100 µM (inactive) | > 100 µM (inactive) | 25.4 µM (inactive) | > 100 µM (inactive) | > 100 µM (inactive) | > 100 µM (inactive) | 34.8 µM (inactive) | > 100 µM (inactive)
7 | CCN1N=CSC12C(=O)N(c1ccccc1)C(=O)N2c1ccccc1 (stereo not given) | > 100 µM (inactive) | > 100 µM (inactive) | > 100 µM (inactive) | > 100 µM (inactive) | > 100 µM (inactive) | > 100 µM (inactive) | > 100 µM (inactive) | > 100 µM (inactive) | – | > 100 µM (inactive) | > 100 µM (inactive) | – | – | > 100 µM (inactive) | > 100 µM (inactive) | > 100 µM (inactive) | > 100 µM (inactive)
8 | O=c1cc(-c2ccccc2)c2cc3c(=O)ccoc3cc2o1 | 15.7 µM (inactive) | 80.4 µM (inactive) | – | > 100 µM (inactive) | 44.4 µM (inactive) | 79.1 µM (inactive) | 14 µM (inactive) | > 100 µM (inactive) | > 100 | 64.4 µM (inactive) | > 100 µM (inactive) | > 100 µM (inactive) | > 100 µM (inactive) | > 100 µM (inactive) | 42.8 µM (inactive) | > 100 µM (inactive) | –
9 | COc1ccc(S(=O)(=O)N(CC(=O)O)c2ccccc2)cc1 | > 100 µM (inactive) | – | > 100 µM (inactive) | > 100 µM (inactive) | > 100 µM (inactive) | – | 67.3 µM (inactive) | > 100 µM (inactive) | > 100 | > 100 µM (inactive) | > 100 µM (inactive) | > 100 µM (inactive) | > 100 µM (inactive) | > 100 µM (inactive) | > 100 µM (inactive) | – | > 100 µM (inactive)
10 | Cn1c(=O)nc2n(-c3ccc(Cl)cc3)c3ccc(Cl)cc3nc-2c1=O | 5.58 µM (inactive) | 18 µM (inactive) | 4.45 µM (inactive) | 16.8 µM (inactive) | 18.2 µM (inactive) | 11.5 µM (inactive) | 1.46 µM (inactive) | 9.06 µM (inactive) | 8.02 | > 10 µM (inactive) | 5.02 µM (inactive) | – | 4.36 µM (inactive) | 6.78 µM (inactive) | 4.88 µM (inactive) | 7.62 µM (inactive) | 7.05 µM (inactive)
11 | Cc1ccccc1C(=O)Oc1ccc(O)cc1 | > 100 µM (inactive) | > 100 µM (inactive) | > 100 µM (inactive) | > 100 µM (inactive) | > 100 µM (inactive) | > 100 µM (inactive) | > 100 µM (inactive) | > 100 µM (inactive) | > 100 | > 100 µM (inactive) | > 100 µM (inactive) | > 100 µM (inactive) | > 100 µM (inactive) | > 100 µM (inactive) | > 100 µM (inactive) | – | –
12 | C[Si](C)(C)OC1(C#N)C2C3CC4C2C(=O)C2C4C3C21 (stereo not given) | > 100 µM (inactive) | > 100 µM (inactive) | > 100 µM (inactive) | > 100 µM (inactive) | > 100 µM (inactive) | > 100 µM (inactive) | > 100 µM (inactive) | > 100 µM (inactive) | > 100 | > 100 µM (inactive) | > 100 µM (inactive) | > 100 µM (inactive) | > 100 µM (inactive) | > 100 µM (inactive) | – | > 100 µM (inactive) | –
13 | COC(=O)/C(=N\NC(N)=O)C(C(=O)C(=O)Nc1ccccc1C(=O)OC)c1nc2ccc(C(=O)c3ccccc3)cc2nc1O (stereo not given) | > 100 µM (inactive) | > 100 µM (inactive) | > 100 µM (inactive) | > 100 µM (inactive) | > 100 µM (inactive) | > 100 µM (inactive) | > 100 µM (inactive) | > 100 µM (inactive) | > 100 | > 100 µM (inactive) | > 100 µM (inactive) | > 100 µM (inactive) | > 100 µM (inactive) | > 100 µM (inactive) | > 100 µM (inactive) | > 100 µM (inactive) | > 100 µM (inactive)
14 | CCN(CC)CCNC(=O)c1ccccc1NC(=O)C(=O)Nc1ccccc1C(=O)NCCN(CC)CC | > 100 µM (inactive) | > 100 µM (inactive) | > 100 µM (inactive) | 30.2 µM (inactive) | > 100 µM (inactive) | > 100 µM (inactive) | 47 µM (inactive) | 19.1 µM (inactive) | 49.9 | > 100 µM (inactive) | 16.4 µM (inactive) | > 100 µM (inactive) | 43 µM (inactive) | > 100 µM (inactive) | 42.5 µM (inactive) | 21.8 µM (inactive) | 31.4 µM (inactive)
15 | O=C1C2C3CC4C5C3C1C5C1(SCCS1)C42 (stereo not given) | > 100 µM (inactive) | > 100 µM (inactive) | > 100 µM (inactive) | > 100 µM (inactive) | > 100 µM (inactive) | > 100 µM (inactive) | > 100 µM (inactive) | > 100 µM (inactive) | > 100 | > 100 µM (inactive) | > 100 µM (inactive) | > 100 µM (inactive) | > 100 µM (inactive) | > 100 µM (inactive) | – | > 100 µM (inactive) | –
16 | O=C(N/N=C/c1cccc(O)c1O)N/N=C/c1cccc(O)c1O | 32.1 µM (inactive) | – | – | 5.38 µM (inactive) | 29.4 µM (inactive) | 23.4 µM (inactive) | 8.77 µM (inactive) | 14 µM (inactive) | 8.45 | 30.2 µM (inactive) | 6.97 µM (inactive) | 19.8 µM (inactive) | 24 µM (inactive) | 5.93 µM (inactive) | 17.9 µM (inactive) | – | 17.4 µM (inactive)
17 | CN(C)CC/C(=N\Nc1ccccc1)c1ccccc1 | – | 13.4 µM (inactive) | 3.18 µM (inactive) | 2.83 µM (inactive) | 14.3 µM (inactive) | – | – | 2 µM (inactive) | 2.88 | 40.9 µM (inactive) | 2.48 µM (inactive) | 43.7 µM (inactive) | 9.16 µM (inactive) | 8.13 µM (inactive) | 2.56 µM (inactive) | 47.8 µM (inactive) | 11.1 µM (inactive)
18 | COc1ccc(C2Cc3cc(OC)c(OC)c(OC)c3C2=O)cc1 (stereo not given) | > 100 µM (inactive) | > 100 µM (inactive) | > 100 µM (inactive) | > 100 µM (inactive) | > 100 µM (inactive) | > 100 µM (inactive) | 47.3 µM (inactive) | > 100 µM (inactive) | > 100 | > 100 µM (inactive) | 80 µM (inactive) | > 100 µM (inactive) | > 100 µM (inactive) | > 100 µM (inactive) | > 100 µM (inactive) | – | –
